Source: US4432973A, “Benzoyl- and α-hydroxybenzyl-phenyl-glycosides and application thereof in therapeutics” (Societe de Recherches Industrielles (S.O.R.I.), priority 1980, dated 1984)

What was measured:
[1] = Acute toxicity in the mouse by the I.P. route; assay type: in vivo; conditions: for LD50: read-out: DL-50 (lethal dose involving the death of half of the animals)
Source text: The acute toxicity was studied in the mouse by the I.P. route. It is expressed in the form of DL-50 (lethal dose involving the death of half of the animals) or DL-0 (maximum non-lethal dose).

[2] = Veinous thrombosis: veinous anti-thrombus activity; assay type: in vivo; conditions: 100 mg/kg I.P., 4 to 5 hours after administration; for inhibition in vivo at 100 mg/kg: Rattus norvegicus, ip, read-out: Diminution of veinous thrombus
Experimental: The technique used is similar to the one described by Peterson-Zucker in Thrombo.Diath.Haemorh. 23, 1, (1970).
An occlusive thrombus is created in the […] vena cava of a rat by the combined action of an endothelial alteration and a veinous stasis for 15 mins. and 4 to 5 hours after administration of the product to be tested (100 mg/kg I.P.).

[3] = Anti-ulcer activity: ulcer caused by aspirin; assay type: in vivo, rat (male Wistar); conditions: 100 mg/kg I.P.; aspirin 192 mg/kg per os; standardised to control batch and cimetidine (index 1)
Experimental: The experiment is carried out on male Wistar rats of 180 to 200 g. The products to be tested are administered at 100 mg/kg I.P. (unless indicated to the contrary in Table IV).
At t=0, the rats are made to fast and a first administration of the product to be tested is made.
At t=18 hours, 2 ml of an ulcer-forming suspension with 192 mg of aspirin/kg are administered per os then a second administration of the product to be tested is made.
At t=22 hours, the animals are sacrificed and the ulcers are marked as follows: small point-like ulcers: mark 1 more extensive ulcers: mark 3 highly extensive or very deep ulcers: mark 9
This marking is standardised with respect to a control batch and to cimetidine (a reference product) to which index 1 has been allocated.

[4] = Anti-hypoxic activity: survival to hypoxia (nitrogen-oxygen 95:5); assay type: in vivo, mouse (Swiss male); conditions: I.P., 1/10th of LD-50 or 100 mg/kg when LD-0 ≥ 800 mg/kg; up to 15 minutes; mouse
Experimental: The experiment is carried out on batches of 20 Swiss male mice weighing from 20 to 30 g. Each product to be tested is administered to the mice by intraperitoneal route at a dose corresponding to 1/10th of the LD-50 or at a dose of 100 mg/kg when the LD-0 is higher than or equal to 800 mg/kg. The mice are placed in a nitrogen-oxygen (95:5) v/v atmosphere. The survival time of the mice is then measured up to 15 minutes maximum.
The results shown in Table VII are expressed in percentage of survival with respect to a non-treated control batch and a batch treated with an anti-hypoxic reference product [specialty known under the trade name of "Duxil" and which is constituted by a mixture of Almitrine bis-methanesulfonate and of Raubasine in the weight ratio 3:1], the anti-hypoxic reference product being administered at the dose of 18 mg/kg I.P.

Row | Structure (SMILES) | DL-0 (maximum non-lethal dose) ([1]; I.P.) [mg/kg IP] | inhibition in vivo at 100 mg/kg [2] [%] | Ulcer index [3] | LD50 ([1]; in vivo, ip, I.P.) [mg/kg] | DL-0 (maximum non-lethal dose) ([1]; in vivo, ip) [mg/kg IP] | Survival (survival percentage to hypoxic aggression) [4] | Diminution of veinous thrombus ([2]; rat)
1 | O=C(c1ccccc1)c1cccc(O[C@@H]2OC[C@@H](O)[C@H](O)[C@H]2O)c1 [Example 45] | > 800 | 30 to 49 | 1.11 |  |  |  | 
2 | COc1ccc(C(=O)c2ccc(O[C@@H]3OC[C@@H](O)[C@H](O)[C@H]3O)cc2)cc1 [Example 17] |  | 30 to 49 | 0.69 | 1600 |  |  | 
3 | O=C(c1ccc(Br)cc1)c1ccc(O[C@@H]2OC[C@@H](O)[C@H](O)[C@H]2O)cc1 [Example 4] | > 800 | 30 to 49 | 1.04 |  |  |  | 
4 | CC(=O)O[C@@H]1[C@@H](OC(C)=O)[C@H](Oc2ccc(C(=O)c3ccccc3C)cc2)OC[C@H]1OC(C)=O [Example 69] |  | 30 to 49 | 0.78 | 900 |  |  | 
5 | COc1ccc(C(=O)c2ccc(O[C@@H]3OC[C@@H](OC(C)=O)[C@H](OC(C)=O)[C@H]3OC(C)=O)cc2)cc1 [Example 81] | > 800 | 30 to 49 | 0.64 |  |  |  | 
6 | OC(c1ccc(O[C@@H]2OC[C@@H](O)[C@H](O)[C@H]2O)cc1)c1ccc(Cl)cc1Cl (some centres unmarked) [Example 86] |  | 30 to 49 | 0.50 | > 350 |  |  | 
7 | Cc1cc(C(=O)c2ccc([N+](=O)[O-])cc2)cc(C)c1O[C@@H]1OC[C@@H](O)[C@H](O)[C@H]1O [Example 23] |  | 30 to 49 | 0.52 | 750 |  |  | 
8 | CC(=O)N[C@H]1[C@H](Oc2ccc(C(=O)c3ccc([N+](=O)[O-])cc3)cc2)O[C@H](COC(C)=O)[C@@H](OC(C)=O)[C@@H]1OC(C)=O [Example 109] |  |  | 0.65 |  | > 800 | ++ (from 50 to 79%) | 
9 | Nc1ccccc1C(=O)c1ccc(O[C@@H]2OC[C@@H](O)[C@H](O)[C@H]2O)cc1 [Example 7] | > 800 | ≥ 50 |  |  |  |  | 
10 | CC(=O)N[C@H]1[C@H](Oc2ccc(C(=O)c3ccccc3C)cc2)O[C@H](CO)[C@@H](O)[C@@H]1O [Example 121] |  |  | 0.39 |  | > 800 | + (from 30 to 49%) | 
11 | CC(=O)N[C@H]1[C@H](Oc2ccc(C(=O)c3ccc([N+](=O)[O-])cc3)cc2)O[C@H](CO)[C@@H](O)[C@@H]1O [Example 44, [4-(4-nitrobenzoyl)-phenyl]-2-(N-acetyl)-β-D-glucosaminide] |  |  | 0.385 |  | > 800 | +++ (higher than or equal to 80%) | 
12 | O=C(c1ccccc1)c1ccc(O[C@@H]2OC[C@@H](O)[C@H](O)[C@H]2O)cc1 [Example 18] |  | 30 to 49 |  | > 1000 |  |  | 
13 | OC(c1ccccc1)c1ccc(O[C@@H]2OC[C@@H](O)[C@H](O)[C@H]2O)cc1 (some centres unmarked) [Example 92] |  | 30 to 49 |  | 1400 |  |  | 
14 | CC(=O)O[C@@H]1[C@@H](OC(C)=O)[C@H](Oc2ccc(C(=O)c3ccc(N)cc3)cc2)OC[C@H]1OC(C)=O [Example 77] | > 800 | 30 to 49 |  |  |  |  | 
15 | CC(=O)O[C@@H]1[C@@H](OC(C)=O)[C@H](Oc2ccc(C(=O)c3ccc(N(C)C)cc3)cc2)OC[C@H]1OC(C)=O [Example 116] |  |  | 0.44 |  | > 800 | + (from 30 to 49%) | 
16 | CC(=O)O[C@@H]1[C@@H](OC(C)=O)[C@H](Oc2ccc(C(=O)c3ccc([N+](=O)[O-])cc3)cc2)OC[C@H]1OC(C)=O [Example 41, [4-(4-nitrobenzoyl)-phenyl]-2,3,4-tri-(O-acetyl)-β-D-xylopyranoside] |  |  | 0.40 |  | > 800 | +++ (higher than or equal to 80%) | 
17 | CC(=O)OC[C@H]1O[C@@H](Oc2ccc(C(=O)c3ccc([N+](=O)[O-])cc3)cc2)[C@H](OC(C)=O)[C@@H](OC(C)=O)[C@@H]1OC(C)=O [Example 110] |  |  | 0.71 |  | > 800 | ++ (from 50 to 79%) | 

Row | Structure (SMILES) | DL-0 (maximum non-lethal dose) ([1]; I.P.) [mg/kg IP] | inhibition in vivo at 100 mg/kg [2] [%] | Ulcer index [3] | LD50 ([1]; in vivo, ip, I.P.) [mg/kg] | DL-0 (maximum non-lethal dose) ([1]; in vivo, ip) [mg/kg IP] | Survival (survival percentage to hypoxic aggression) [4] | Diminution of veinous thrombus ([2]; rat)
18 | COc1cccc(C(=O)c2ccc(O[C@@H]3OC[C@@H](O)[C@H](O)[C@H]3O)cc2)c1 [Example 16] |  |  | 0.73 |  | > 800 | + (from 30 to 49%) | 
19 | CC(=O)N[C@H]1[C@H](Oc2ccc(C(O)c3ccc(Cl)cc3)cc2)O[C@H](CO)[C@@H](O)[C@@H]1O (some centres unmarked) [Example 100] |  |  | 0.35 |  | > 800 | ++ (from 50 to 79%) | 
20 | OC(c1ccc(O[C@@H]2OC[C@@H](O)[C@H](O)[C@H]2O)cc1)c1ccccc1Cl (some centres unmarked) [Example 88] | > 800 | ≥ 50 | 0.39 |  |  |  | 
21 | O=C(c1ccc(O[C@@H]2OC[C@@H](O)[C@H](O)[C@H]2O)cc1)c1cccc([N+](=O)[O-])c1 [Example 2] | > 800 | 30 to 49 | 0.84 |  |  |  | 
22 | CC(=O)N[C@H]1[C@H](Oc2ccc(C(=O)c3ccc(Cl)cc3)cc2)O[C@H](CO)[C@@H](O)[C@@H]1O [Example 43] |  |  | 0.52 |  | > 800 | +++ (higher than or equal to 80%) | 
23 | CC(=O)N[C@H]1[C@H](Oc2ccc(C(=O)c3ccc(C)cc3)cc2)O[C@H](COC(C)=O)[C@@H](OC(C)=O)[C@@H]1OC(C)=O [Example 112] |  |  | 0.68 |  | > 800 | ++ (from 50 to 79%) | 
24 | Cc1cc(C(=O)c2ccc([N+](=O)[O-])cc2)ccc1O[C@@H]1OC[C@@H](O)[C@H](O)[C@H]1O [Example 29] | > 800 | 30 to 49 |  |  |  |  | 
25 | O=C(c1ccc(O[C@@H]2OC[C@@H](O)[C@H](O)[C@H]2O)cc1)c1ccccc1[N+](=O)[O-] [Example 6] |  | 30 to 49 | 0.45 | 600 |  |  | 
26 | O=[N+]([O-])c1cccc(C(O)c2ccc(O[C@@H]3OC[C@@H](O)[C@H](O)[C@H]3O)cc2)c1 (some centres unmarked) [Example 87] |  | ≥ 50 | 0.35 | > 600 |  |  | 
27 | O=C(c1ccc(O[C@@H]2OC[C@@H](O)[C@H](O)[C@H]2O)cc1)c1ccccc1Cl [Example 5] | > 800 | ≥ 50 |  |  |  |  | 
28 | O=C(c1ccc(O[C@@H]2OC[C@@H](O)[C@H](O)[C@H]2O)cc1)c1cccc(C(F)(F)F)c1 [Example 13] |  |  | 0.46 | 170 |  | ++ (from 50 to 79%) | 
29 | CC(=O)O[C@@H]1[C@@H](OC(C)=O)[C@H](Oc2ccc(C(=O)c3ccccc3Cl)cc2)OC[C@H]1OC(C)=O [Example 70] | > 800 | 30 to 49 | 0.56 |  |  |  | 
30 | CC(=O)N[C@H]1[C@H](Oc2c(C)cc(C(=O)c3ccccc3C)cc2C)O[C@H](CO)[C@@H](O)[C@@H]1O [Example 26] |  |  | 0.60 | 700 |  | + (from 30 to 49%) | 
31 | CC(=O)O[C@@H]1[C@@H](OC(C)=O)[C@H](Oc2ccc(C(=O)c3ccc(Br)cc3)cc2)OC[C@H]1OC(C)=O [Example 75] | > 800 | 30 to 49 | 0.32 |  |  |  | 
32 | O=[N+]([O-])c1ccc(C(O)c2ccc(O[C@@H]3OC[C@@H](O)[C@H](O)[C@H]3O)cc2)cc1 (single isomer, unassigned) [Example 99, [4-(4-nitro-α-hydroxybenzyl)-phenyl]-β-D-xylopyranoside] |  |  |  |  |  |  | + (inhibition of 30 to 49%)
33 | O=[N+]([O-])c1ccc(C(O)c2ccc(O[C@@H]3OC[C@@H](O)[C@H](O)[C@H]3O)cc2)cc1 (single isomer, unassigned) [Example 98, [4-(4-nitro-α-hydroxybenzyl)-phenyl]-β-D-xylopyranoside] |  | ≥ 50 |  |  |  |  | 
